Source: US20240252418A1, “Additives (Adjuvants, Anti Freezing Agents, Antimicrobial and Antioxidants) in Natural Deep Eutectic Solvents and Mixtures” (Bioeutectics Corporation, priority 2023, published 2024)

Tests used:
[1] = Solubility test for common agro actives; details: 14% w/w analyte/solvent, 30° C., vortex and ultrasound
Method: Solubility test (for common agro actives) was carried out at the working concentration of 14% w/w analyte/solvent, initially in traditional solvents and then in our selected solvents, at 30° C. and assisted by vortex and ultrasound.

[2] = Wetted area of droplets on a paper sheet (pure systems); type: physicochemical; details: 5 μL drop
Method: (§1) A general procedure was developed to evaluate the wetted area of droplets. The test system was prepared with 1% of the eutectic products in water, and a miscible dye, which allowed the visualization of the wetted area droplets. To compare the ability of the pure systems to a known adjuvant, TX (Triton X-100), a nonionic surfactant that has a hydrophilic polyethylene oxide chain with, on average, 9.5 ethylene oxide units) was used and was prepared under the same conditions and compared with a water/dye blank.

[3] = system: waxy leaves of Epipremnum aureum; assay: Wetted area of droplets on waxy leaves; type: physicochemical
Method: as §1
In a subsequent experiment, the wetted area of droplets was tested on waxy leaves of Epipremnum aureum. The quantitative results of those tests appear in Table 2.

[4] = Wetted area on a paper sheet (mixture systems with TX); type: physicochemical
Method: as §1
With the results from the pure systems on paper and a waxy leaf shown in tables 1 and 2, a subsequent test was performed wherein mixtures of the products of the present invention with TX were compared on a paper sheet. Mixtures comprising TX and the products under study were evaluated at 0.9, 0.75, 0.50, 0.25, and 0.10% (1% total concentration). […] Compared to TX/water, the mixture with TX/BOA (50/50%) increased the wetted area by around 190%, systems with TX/BOA and TX/BOA (75/25%) increased the wetted area by around 180%, while TX/BOA (25/75%) increased the wetted area by around 150% (see Table 3).

[5] = Evaporation time measurements; type: physicochemical; details: 5 μL drop of 1% solution in H2O, glass slide, room temperature
Method: Evaporation time was analyzed after applying 5 μL (one drop) of a 1% solution in water, on a glass slide at room temperature.

[6] = Component A TX 0.1% + Component B 0.9%
[7] = Component A TX 0.25% + Component B 0.75%
[8] = Component A TX 0.5% + Component B 0.5%
[9] = Component A TX 0.75% + Component B 0.25%
[10] = Component A TX 0.9% + Component B 0.1%

Compound | Solubility in the selected solvents [1] | Relative size (%) with reference to H2O ([2]; 1% in water) [%] | Relative size (%) with reference to TX ([2]; 1% in water) [%] | Area ([2]; 1% in water with dye) [mm^2] | Relative size (%) with reference to H2O [3] [%] | Relative size (%) with reference to TX [3] [%] | Area [4, 6] [mm^2] | Relative size (%) with reference to TX/H2O [4, 6] [%] | Area [4, 7] [mm^2] | Relative size (%) with reference to TX/H2O [4, 7] [%] | Area [4, 8] [mm^2] | Relative size (%) with reference to TX/H2O [4, 8] [%] | Area [4, 9] [mm^2] | Relative size (%) with reference to TX/H2O [4, 9] [%] | Area [4, 10] [mm^2] | Relative size (%) with reference to TX/H2O [4, 10] [%] | Evaporation time [5] [min] | The relative evaporation time with reference to TX (min) [5]
CCNc1nc(Cl)nc(NC(C)(C)C)n1 [Terbutylazine] | Soluble in 9 of our tested solvents |  |  |  |  |  |  |  |  |  |  |  |  |  |  |  |  | 
Triton X-100 [TX] |  | 424.82 | 100.00 | 23.98 | 333.18 | 100.00 | 18.05 | 100.00 | 18.99 | 100.00 | 17.78 | 100.00 | 17.84 | 100.00 | 15.81 | 100.00 | 19.73 | 1.00
